Consider 15 compounds from US20250145608A1, “KRAS DEGRADING COMPOUNDS COMPRISING ANNULATED 2-AMINO-3-CYANO THIOPHENES” (Boehringer Ingelheim Int'l GmbH Corp., priority 2021, published 2025).

Holding throughout (type): cell-based
The subject of assay [1] is GP5d cells. The experiment in a line: GP5d cell proliferation assay (colorectal cancer, G12D), 5 days. To be noted: Homo sapiens, 120 h. As for the experimental part: GP5d Cell Proliferation Assay (Colorectal Cancer, G12D)
(§1) GP5d cells (ECACC 95090715) are dispensed into white bottom opaque 96 well plates at a density of 5000 cells per well in 100 μL DMEM (BioWhittaker, Cat #BE12-605F) supplemented with 10% FCS. […] Compounds (10 mM stock in DMSO) are added at logarithmic dose series using the HP Digital Dispenser D300 (Tecan), normalizing for added DMSO. For the TO time point measurement, untreated cells are analysed at the time of compound addition. Plates are incubated for 5 days, and cell viability is measured using CellTiter-Glo luminescent cell viability reagent (Promega, Cat. No G7570). Viability (stated as percent of control) is defined as relative luminescence units RLU of each well divided by the RLU of cells in DMSO controls. IC50 values were computed from relative viability values using a four parametric logistic model.

The test system of assay [2] is NCI-H358 cells. The experiment in a line: NCI-H358 CTG proliferation assay (120 h) (NSCLC, G12C). As to conditions: Homo sapiens. As to the method: NCI-H358 CTG Proliferation Assay (120 h) (NSCLC, G12C)
NCI-H358 cells (ATCC No. CRL-5807) are dispensed into white bottom opaque 96 well plates (Perkin Elmer cat no. 5680) at a density of 2000 cells per well in 100 μL RPMI-1640 ATCC-Formulation (Gibco #A10491)+10% FCS (fetal calf serum) (assay 1) or into black 384-well plates, flat and clear bottom (Greiner, PNr. 781091) at a density of 200 cells per well in 60 μl RPMI-1640 ATCC-Formulation (Gibco #A10491)+10% FCS (fetal calf serum) (assay 2). […] Compounds (10 mM stock in DMSO) are added at logarithmic dose series using the HP Digital Dispenser D300 (Tecan) (assay 1) or the ECHO acoustic liquid handler system (Beckman Coulter) (assay 2), normalizing for added DMSO and including DMSO controls. For the TO time point measurement, untreated cells are analyzed at the time of compound addition. Plates are incubated for 120 h, and cell viability is measured using CellTiter-Glo luminescent cell viability reagent (Promega product code G7570). Viability (stated as percent of control) is defined as relative luminescence units RLU of each well divided by the RLU of cells in DMSO controls. IC50 values are determined from viability measurements by non-linear regression using a four parameter model.

In assay [3] the target is T1, KRAS(G12D) (Homo sapiens, UniProt P01116, G12D).
T1 construct: introduced immediately downstream of the initiating Methionine codon of the endogenous KRAS locus; host or cells: GP5d-HiBit-KRAS(G12D), a CRISPR knock-in at the endogenous locus
Put plainly: HiBit degradation assay in GP5d-HiBit-KRAS(G12D) cells (18 h; DC50, Dmax). As for the experimental part:
A HiBit protein detection tag (amino acid sequence […], Seq ID No 1) was introduced immediately downstream of the initiating Methionine codon of the endogenous KRAS locus (Ensembl gene ID ENSG00000133703.7) of GP5d cells (ECACC Cat. No. 95090715) by CRISPR-based genome engineering using a KRAS(G12D) mutant donor construct encoding the HiBit tag. […] Correct modification of the KRAS locus was assessed by PCR-based genotyping and Sanger sequencing of the isolated PCR products. The resulting cell line is referred to as GP5d-HiBit-KRAS(G12D).
To assess PROTAC-mediated degradation of KRAS(G12D), GP5d-HiBit-KRAS(G12D) cells were seeded at 25000 cells per well in 100 μL Dulbecco's Modified Eagle medium (Sigma cat. no. D6429) supplemented with 10% fetal calf serum into white bottom opaque 96 well plates (Perkin Elmer cat no. 5680). Plates were incubated at 37° C., 5% CO2 in a humidified incubator over night to allow the cells to adhere. […] Plates were further incubated at 37° C. for 18 hours. Following incubation, 100 μL per well Promega Nano-Glo HiBit lytic detection reagent mix (Promega Nano-Glo HiBit Lytic Detection System #N3050), prepared according to the manufacturer's instructions in the kit, were added. To allow for adequate cell lysis, plates were incubated on an orbital shaker for 15 min and further incubated 30 min at room temperature. Upon completion of cell lysis, luminescence was measured using an Envision plate reader using the Ultrasensitive Luminescence Protocol for 96 well plates. Luminescence levels were normalized by the values obtained with DMSO-treated samples and plotted as percent of DMSO control. DC50 values were computed using a four parametric logistic model. Dmax values represent the maximal extent of degradation observed and is stated as percent of control (% Ctrl.) treatments. DC50 and Dmax are reported in Table 64 for representative compounds of the invention.
For orientation: HiBiT is a short tag that completes a luciferase, so light tracks the accessible tagged protein.

Assay [4] relates to SW620 cells. The experiment in a line: SW620 cell proliferation assay (colorectal cancer, G12V), 5 days. To be noted: Homo sapiens, SW-620, 120 h. As to the method:
SW620 Cell Proliferation Assay (Colorectal Cancer, G12V)
as §1, with “SW620” for “GP5d”, “(ATCC CCL-227)” for “(ECACC 95090715)”, “plates (Perkin Elmer cat no. 5680)” for “plates”, “2000” for “5000”

[5] abbreviates: assay 1, read-out: H358 (assay 1) IC50.
The mark [6] stands for this setting: assay 2, read-out: H358 (assay 2) IC50.

SMILES strings stand for the structures. Where two headings read alike, the source gives them in different places.

What is called IC50 is the point on the concentration scale where inhibition reaches its midpoint. As usually defined, the DC50 is the concentration giving 50% degradation.

T1 sequence (P01116 1-188 isoform P01116-2 G12D): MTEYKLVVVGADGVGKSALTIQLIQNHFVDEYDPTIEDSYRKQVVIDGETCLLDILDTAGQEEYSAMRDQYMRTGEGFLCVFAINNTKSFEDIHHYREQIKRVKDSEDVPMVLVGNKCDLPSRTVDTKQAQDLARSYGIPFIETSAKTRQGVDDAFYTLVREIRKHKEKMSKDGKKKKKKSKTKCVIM

Turning to `Cc1ncsc1-c1ccc(CNC(=O)[C@@H]2C[C@@H](O)CN2C(=O)C(c2cc(OCCCCCCN3CCCN(c4nccc(-c5noc([C@@]6(C)CCCc7sc(N)c(C#N)c76)n5)n4)[C@@H](C)C3)no2)C(C)C)cc1` (stereo partly shown) [I-8], the IC50 in assay [1] was 90.2 nM; in assay [2] (setting [5]), 725 nM; in assay [2] (setting [6]) it was 136 nM; in assay [4], 50.4 nM. In addition, in assay [3], the DC50 was found to be 11.4 nM. The “Dmax 18 h” value in assay [3] is given as 86 % Ctrl.

Regarding `Cc1ncsc1-c1ccc(CNC(=O)[C@@H]2C[C@@H](O)CN2C(=O)C(c2cc(OC/C=C/CN3CCCN(c4nccc(-c5noc([C@@]6(C)CCCc7sc(N)c(C#N)c76)n5)n4)[C@@H](C)C3)no2)C(C)C)cc1` (stereo partly shown) [I-15], the IC50 in assay [2] (setting [6]) is 122 nM. For the same compound, in assay [3], half-maximal degradation (DC50) was put at 9.8 nM and the “Dmax 18 h” value is 90 % Ctrl.

Turning to `Cc1ncsc1-c1ccc(CNC(=O)[C@@H]2C[C@@H](O)CN2C(=O)[C@H](c2cc(OCCCCN3CCCN(c4nccc(-c5noc([C@@]6(C)CCCc7sc(N)c(C#N)c76)n5)n4)[C@@H](C)C3)no2)C(C)C)cc1` (single isomer, unassigned) [I-26], the IC50 turned out to be 133 nM in assay [1], 485 nM in assay [2] (setting [5]), 435 nM in assay [2] (setting [6]) and 265 nM in assay [4]. In assay [3], this compound registered a DC50 of 101 nM. In addition, the “Dmax 18 h” value in assay [3] is given as 77 % Ctrl.

Regarding `Cc1ncsc1-c1ccc(CNC(=O)[C@@H]2C[C@@H](O)CN2C(=O)[C@@H](NC(=O)COCCCN2CCCN(c3nccc(-c4noc([C@@]5(C)CCCc6sc(N)c(C#N)c65)n4)n3)[C@@H](C)C2)C(C)(C)C)cc1` [I-48], the results for the IC50 in assay [1], in assay [2] (setting [5]) and in assay [4] were 2630 nM, 3550 nM and 803 nM, respectively. The compound also came in with a DC50 in assay [3] of 523 nM. Also, the “Dmax 18 h” value in assay [3] is reported as 85 % Ctrl.

With `Cc1ncsc1-c1ccc(CNC(=O)[C@@H]2C[C@@H](O)CN2C(=O)C(C(C)C)n2cc(CCCCCN3CCCN(c4nccc(-c5noc([C@@]6(C)CCCc7sc(N)c(C#N)c76)n5)n4)[C@@H](C)C3)nn2)cc1` (stereo partly shown) [I-34], the IC50 in assay [1] worked out at 21.7 nM; in assay [2] (setting [5]) it was 160 nM; in assay [2] (setting [6]) it was 43.8 nM; in assay [4], 51.3 nM. For the same compound, the DC50 in assay [3] amounted to 10.6 nM. Further, the “Dmax 18 h” value in assay [3] is reported as 91 % Ctrl.

As to `Cc1ncsc1-c1ccc(CNC(=O)[C@@H]2C[C@@H](O)CN2C(=O)C(c2cc(OCCN3CCCN(c4nccc(-c5noc([C@@]6(C)CCCc7sc(N)c(C#N)c76)n5)n4)[C@@H](C)C3)no2)C(C)C)cc1` (stereo partly shown) [I-2], the figures for the IC50 in assay [1], in assay [2] (setting [5]) and in assay [4] were at least 9000 nM, 2930 nM and 598 nM, respectively. Besides, it took 263 nM to reach half-maximal degradation in assay [3] (DC50). Besides, in assay [3], the “Dmax 18 h” value is recorded as 84 % Ctrl.

Regarding `Cc1ncsc1-c1ccc(CNC(=O)[C@@H]2C[C@@H](O)CN2C(=O)C(c2cc(OCCCCN3CCCN(c4ccnc(-c5noc([C@@]6(C)CCCc7sc(N)c(C#N)c76)n5)n4)[C@@H](C)C3)no2)C(C)C)cc1` (stereo partly shown) [I-22], in assay [2] (setting [6]), the IC50 was 97.5 nM. In addition, in assay [3], the DC50 came out at 48.8 nM and the “Dmax 18 h” value amounted to 92 % Ctrl.

Take `Cc1ncsc1-c1ccc(CNC(=O)[C@@H]2C[C@@H](O)CN2C(=O)C(c2cc(OCCOCCN3CCCN(c4nccc(-c5noc([C@@]6(C)CCCc7sc(N)c(C#N)c76)n5)n4)[C@@H](C)C3)no2)C(C)C)cc1` (stereo partly shown) [I-14]: in assay [2] (setting [6]), the IC50 was 843 nM. In assay [3], half-maximal degradation (DC50) was put at 76 nM and the “Dmax 18 h” value is reported as 80 % Ctrl.

For `Cc1ncsc1-c1ccc(CNC(=O)[C@@H]2C[C@@H](O)CN2C(=O)C(c2cc(OCCCCN3CCCN(c4nccc(-c5noc([C@@]6(C)CCCc7sc(N)c(C#N)c76)n5)n4)[C@@H](C)C3)no2)C(C)C)cc1` (stereo partly shown) [I-3], the IC50 in assay [1] turned out to be 6.14 nM; in assay [2] (setting [5]), 66 nM; in assay [2] (setting [6]), 60.7 nM; in assay [4], 13.1 nM. The same compound showed a DC50 in assay [3] of 2.7 nM. The “Dmax 18 h” value in assay [3] turned out to be 91 % Ctrl.

For the compound `CC(C)C(C(=O)N1C[C@H](O)C[C@H]1C(=O)NCc1ccc(-n2cncn2)cc1)c1cc(OCCCCN2CCCN(c3nccc(-c4noc([C@@]5(C)CCCc6sc(N)c(C#N)c65)n4)n3)[C@@H](C)C2)no1` (stereo partly shown) [I-17], the IC50 in assay [2] (setting [6]) worked out at 89.5 nM. Also, in assay [3], the DC50 turned out to be 3.3 nM and the “Dmax 18 h” value is reported as 93 % Ctrl.

In the case of `Cc1ncsc1-c1ccc([C@@H](NC(=O)[C@@H]2C[C@@H](O)CN2C(=O)[C@@H](C(C)C)n2cc(OCCCN3CCCN(c4nccc(-c5noc([C@@]6(C)CCCc7sc(N)c(C#N)c76)n5)n4)[C@@H](C)C3)nn2)[C@H](O)C(C)C)cc1` (single isomer, unassigned) [I-42], the IC50 in assay [2] (setting [6]) was determined as 1920 nM. Besides, in assay [3], the DC50 turned out to be 462 nM and the “Dmax 18 h” value came out at 74 % Ctrl.

For `Cc1ncsc1-c1ccc([C@@H](NC(=O)[C@@H]2C[C@@H](O)CN2C(=O)[C@@H](C(C)C)n2cc(OCCCCN3CCCN(c4nccc(-c5noc([C@@]6(C)CCCc7sc(N)c(C#N)c76)n5)n4)[C@@H](C)C3)nn2)[C@H](C)O)cc1` (single isomer, unassigned) [I-40], the IC50 in assay [2] (setting [6]) is 2720 nM. Also, in assay [3], it took 970 nM to reach half-maximal degradation (DC50) and the “Dmax 18 h” value is given as 61 % Ctrl.

With `Cc1ncsc1-c1ccc([C@H](CCOP(=O)(O)O)NC(=O)[C@@H]2C[C@@H](O)CN2C(=O)[C@H](C(C)C)n2cc(OCCCCN3CCCN(c4nccc(-c5noc([C@@]6(C)CCCc7sc(N)c(C#N)c76)n5)n4)[C@@H](C)C3)nn2)cc1` [I-39], the IC50 in assay [2] (setting [6]) was 57 nM. Also, in assay [3], half-maximal degradation (DC50) was put at 7.7 nM and the “Dmax 18 h” value was determined as 87 % Ctrl.

`Cc1ncsc1-c1ccc(CNC(=O)[C@@H]2C[C@@H](O)CN2C(=O)C(c2cc(OCCCN3CCCN(c4ccnc(-c5noc([C@@]6(C)CCCc7sc(N)c(C#N)c76)n5)n4)[C@@H](C)C3)no2)C(C)C)cc1` (stereo partly shown) [I-21]: the IC50 in assay [2] (setting [6]) turned out to be 81.3 nM. Moreover, in assay [3], it took 41.1 nM to reach half-maximal degradation (DC50) and the “Dmax 18 h” value is 90 % Ctrl.

Take `Cc1ncsc1-c1ccc([C@@H](NC(=O)[C@@H]2C[C@@H](O)CN2C(=O)[C@@H](C(C)C)n2cc(OCCCCN3CCCN(c4nccc(-c5noc([C@@]6(C)CCCc7sc(N)c(C#N)c76)n5)n4)[C@@H](C)C3)nn2)[C@H](O)C(C)C)cc1` (single isomer, unassigned) [I-44]: in assay [2] (setting [6]), the IC50 came out at 604 nM. Moreover, in assay [3], the DC50 turned out to be 49.7 nM and the “Dmax 18 h” value was 88 % Ctrl.
